The text below walks through data of patent US20230140276A1, “TRICYCLIC COMPOUNDS, PREPARATION METHOD AND MEDICAL USE THEREOF” (HEFEI INSTITUTE OF PHARMACEUTICAL INDUSTRY CO., LTD., priority 2020, published 2023).

Series [1] has as its system histamine-induced skin vascular permeability. Nature of the series: Inhibitory effect on histamine-induced vascular permeability in mice. In kind it is in vivo, ICR mice. Particulars: Mus musculus, po; 5 mg/kg intragastric 1 hour before modeling; histamine phosphate 1 ug/0.1 mL; Evans Blue absorbance at 610 nm; read-out: Inhibition rate (%). As for the experimental part: Intragastric administration was performed 1 hour before modeling. The model group was given the corresponding solvent. […] 10% sodium sulfide was used to depilate the back of mice (3 cm×3 cm). The mice were injected 1 ug/0.1 mL of histamine phosphate physiological saline solution into the depilation site one hour after the administration, and injected 0.25% Evans Blue solution 4 ml/kg from the tail vein immediately after the injection. After 30 minutes, the mice were dislocated and sacrificed. The blue-stained part of the skin was removed and perforated (diameter 15 mm), cut into pieces and soaked in 1 ml of acetone-saline (7:3) solution. After 24 h, it was centrifuged (3000 r/min, 10 min) to take the supernatant. The absorbance of the sample was measured with an ultraviolet spectrophotometer at a wavelength of 610 nm and a blank zero calibration with acetone-physiological saline solution.

The target in another series is hERG potassium channel (Homo sapiens, UniProt Q12809). As to the kind of experiment: hERG potassium channel activity test. It counts as biochemical.
In series [2] the test system is pilocarpine-induced saliva secretion. Nature of the series: Pilocarpine-induced salivation in rats. Particulars: for saliva secretion compared with the model group: 10 mg/kg intragastric administration; for Inhibition rate (%): 10 mg/kg intragastric, pilocarpine 1 mg/kg i.p. 15 minutes later, saliva collected 10 minutes.
Description: Rats in each group were given corresponding drugs by intragastric administration. 15 minutes later, pilocarpine (1 mg/kg, dissolved in physiological saline) was injected intraperitoneally to induce saliva secretion. The rat was immediately anesthetized by intraperitoneal injection of 10% chloral hydrate. After the rat was anesthetized, the residual saliva in the oral cavity was taken out with a cotton ball in that the weighed cotton ball (M1) was placed in the oral cavity (two under the tongue and one for each on both sides). The cotton ball was taken out 10 minutes later and the weight of the cotton ball (M2) was immediately measured.
Inhibition rate=Saliva secretion in drug administration group/Saliva secretion in model group×100%

Structures are written as SMILES.

Sequence of hERG potassium channel (Q12809 whole entry): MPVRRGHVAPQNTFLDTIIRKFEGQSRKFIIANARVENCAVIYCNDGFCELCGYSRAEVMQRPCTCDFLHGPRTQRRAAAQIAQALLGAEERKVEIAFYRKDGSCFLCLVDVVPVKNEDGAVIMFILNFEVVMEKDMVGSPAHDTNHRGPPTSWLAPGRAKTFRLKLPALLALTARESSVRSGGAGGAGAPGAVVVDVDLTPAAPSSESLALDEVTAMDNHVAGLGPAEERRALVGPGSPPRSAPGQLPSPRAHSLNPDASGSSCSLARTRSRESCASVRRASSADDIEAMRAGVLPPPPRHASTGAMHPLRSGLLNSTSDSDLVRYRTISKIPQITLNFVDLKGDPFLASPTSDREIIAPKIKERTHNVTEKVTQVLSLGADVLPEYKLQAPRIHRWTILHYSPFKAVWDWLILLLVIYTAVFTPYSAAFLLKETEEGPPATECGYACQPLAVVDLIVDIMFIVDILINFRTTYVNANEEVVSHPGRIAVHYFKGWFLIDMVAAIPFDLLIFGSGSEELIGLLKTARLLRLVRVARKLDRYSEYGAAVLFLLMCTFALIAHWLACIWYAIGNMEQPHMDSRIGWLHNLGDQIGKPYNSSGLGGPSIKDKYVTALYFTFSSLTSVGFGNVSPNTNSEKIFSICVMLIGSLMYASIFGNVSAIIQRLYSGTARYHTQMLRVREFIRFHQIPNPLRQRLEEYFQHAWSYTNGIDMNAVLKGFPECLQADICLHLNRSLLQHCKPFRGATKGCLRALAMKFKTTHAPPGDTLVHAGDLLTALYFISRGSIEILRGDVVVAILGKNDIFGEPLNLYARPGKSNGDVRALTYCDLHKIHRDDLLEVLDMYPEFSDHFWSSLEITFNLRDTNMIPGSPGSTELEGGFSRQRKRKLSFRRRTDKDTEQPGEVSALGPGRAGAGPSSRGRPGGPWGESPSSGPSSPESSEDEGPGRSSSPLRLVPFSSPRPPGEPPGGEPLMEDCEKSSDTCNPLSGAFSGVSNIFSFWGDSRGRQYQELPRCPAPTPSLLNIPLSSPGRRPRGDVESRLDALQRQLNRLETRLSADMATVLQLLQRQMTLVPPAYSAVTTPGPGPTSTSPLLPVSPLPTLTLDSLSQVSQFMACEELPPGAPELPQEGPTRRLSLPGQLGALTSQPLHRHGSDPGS

In the case of `Cc1ccc2c(c1)CCc1cccnc1C2=C1CCN(CCCc2ccc(C(=O)O)cc2)CC1` [Compound 1, reference compound], the inhibition in vivo at 5 mg/kg in series [1] was 36.1%. Besides, at hERG potassium channel, the IC50 (as a rule, the concentration needed to halve the response being measured) worked out at 2.03 µM. Further, in series [2], the “saliva secretion compared with the model group” value was “decreased” and the “Inhibition rate (%)” value was 84.30%.

Take `COc1ccccc1OCC(O)CN1CCC(=C2c3ccc(Cl)cc3CCc3cccnc32)CC1` (stereo not shown) [Compound LHC-7, reference compound]: the inhibition in vivo at 5 mg/kg in series [1] turned out to be 53.2%. The molecule further showed an IC50 at hERG potassium channel of 0.248 µM. Moreover, the “Inhibition rate (%)” value in series [2] is on record as 95.60%.

On to `Cc1nc(C)c(CN2CCC(=C3c4ccc(Cl)cc4CCc4cccnc43)CC2)nc1C` [Compound LP-2, reference compound], for which the inhibition in vivo at 5 mg/kg in series [1] is 54.1%. The IC50 against hERG potassium channel is 4.03 µM. For the same molecule, in series [2], the “saliva secretion compared with the model group” value is on record as “decreased” and the “Inhibition rate (%)” value is given as 98.40%.

In the case of `CC(C)(C(=O)O)c1ccc(CN2CCC(=C3c4ccc(Cl)cc4CCc4cccnc43)CC2)cc1` [Example 1, 2-(4-((4-(8-chloro-5,6-dihydro-11H-benzo[5,6]cyclohept[1,2-b]pyridine-11-enyl)piperidine-1-yl)methyl)phenyl)-2-methylpropionic acid], in series [1], the inhibition in vivo at 5 mg/kg came to 52.2%. For the same molecule, at hERG potassium channel, the IC50 is more than 30 µM. Moreover, the “Inhibition rate (%)” value in series [2] stood at 18.53%.

For `CC(C)(C(=O)O)c1ccc(CCCN2CCC(=C3c4ccc(Cl)cc4CCc4cccnc43)CC2)cc1` [Example 3, 2-(4-(3-(4-(8-chloro-5,6-dihydro-11H-benzo[5,6]cyclohept[1,2-b]pyridine-11-enyl)piperidine-1-yl)propyl)phenyl)-2-methylpropionic acid], the inhibition in vivo at 5 mg/kg in series [1] is 41.7%. Moreover, the IC50 against hERG potassium channel was more than 30 µM. The “Inhibition rate (%)” value in series [2] amounted to 7.02%.

Turning to `CC(C)(C(=O)O)c1ccc(CCCN2CCC(=C3c4ccc(Cl)cc4CCc4cccnc43)CC2)c(C#N)c1` [Example 4, 2-(4-(3-(4-(8-chloro-5,6-dihydro-11H-benzo[5,6]cyclohepta[1,2-b]pyridine-11-ylidene)piperidine-1-yl)propyl)-3-cyano)-2-methylpropionic acid], the inhibition in vivo at 5 mg/kg in series [1] was determined as 65.4%. The IC50 against hERG potassium channel is more than 30 µM. Moreover, in series [2], the “Inhibition rate (%)” value was determined as 8.72%.

As to `CC(C)(C(=O)O)c1ccc(CCCN2CCC(=C3c4ccc(Cl)cc4CCc4cccnc43)CC2)c(OC(F)(F)F)c1` [Example 7, 2-(4-(3-(4-(8-chloro-5,6-dihydro-11H-benzo[5,6]cyclohepta[1,2-b]pyridine-11-enyl)piperidine-1-yl)propyl)-3-(trifluoromethoxy)phenyl)-2-methylpropionic acid], in series [1], the inhibition in vivo at 5 mg/kg was 42.6%. On hERG potassium channel, this molecule yielded an IC50 of more than 30 µM. Besides, the “Inhibition rate (%)” value in series [2] amounted to 4.65%.

For the molecule `CC(C)(C(=O)O)c1ccc(CCCN2CCC(=C3c4ccc(Cl)cc4CCc4cccnc43)CC2)c(F)c1` [Example 8, 2-(4-(3-(4-(8-chloro-5,6-dihydro-11H-benzo[5,6]cyclohepta[1,2-b]pyridine-11-enyl)piperidine-1-yl)propyl)-3-fluorophenyl)-2-methylpropionic acid], the inhibition in vivo at 5 mg/kg in series [1] came out at 34.9%. At hERG potassium channel, this molecule came in with an IC50 of more than 30 µM. Also, in series [2], the “Inhibition rate (%)” value is 8.23%.

In the case of `Cc1cc(CCCN2CCC(=C3c4ccc(Cl)cc4CCc4cccnc43)CC2)ccc1C(C)(C)C(=O)O` [Example 11, 2-(4-(3-(4-(8-chloro-5,6-dihydro-11H-benzo[5,6]cyclohepta[1,2-b]pyridine-11-enyl)piperidine-1-yl)propyl)-2-methylphenyl)-2-methylpropionic acid], in series [1], the inhibition in vivo at 5 mg/kg was determined as 36.9%. Further, the 50% inhibitory concentration (IC50) on hERG potassium channel is more than 30 µM. Further, the “Inhibition rate (%)” value in series [2] is 5.20%.

As for `CC(C)(C(=O)O)c1ccc(CCCN2CCC(=C3c4ccc(Cl)cc4CCc4cccnc43)CC2)cc1[N+](=O)[O-]` [Example 17, 2-(4-(3-(4-(8-chloro-5,6-dihydro-11H-benzo[5,6]cyclohepta[1,2-b]pyridine-11-enyl)piperidine-1-yl)propyl)-3-nitrophenyl)-2-methylpropionic acid], the inhibition in vivo at 5 mg/kg in series [1] amounted to 49.2%. Moreover, the “Inhibition rate (%)” value in series [2] is given as 6.54%.

As for `CC(C)(C(=O)O)c1ccc(CCCN2CCC(=C3c4ccc(Cl)cc4CC(O)c4cccnc43)CC2)cc1` (stereo not shown) [Example 18], the inhibition in vivo at 5 mg/kg in series [1] is 46.6%. In addition, the “Inhibition rate (%)” value in series [2] was 12.50%.

With `CC(C)(C(=O)O)c1ccc(CCCN2CCC(=C3c4ccc(Cl)cc4C(O)Cc4cccnc43)CC2)cc1` (stereo not shown) [Example 19], in series [1], the inhibition in vivo at 5 mg/kg is 53.3%. Also, the “Inhibition rate (%)” value in series [2] worked out at 11.83%.

In the case of `CC(C)(C(=O)O)c1ccc(CCCN2CCC(=C3c4ccc(Cl)cc4CCc4cc(O)cnc43)CC2)cc1` [Example 20], the inhibition in vivo at 5 mg/kg in series [1] was found to be 58%. Also, in series [2], the “Inhibition rate (%)” value is on record as 7.65%.

With `CC(C)(C(=O)O)c1ccc(CCCN2CCC(=C3c4ccccc4CCc4cc(Cl)ccc43)CC2)cc1` [Example 21, 2-(4-(3-(4-(2-chloro-10,11-dihydro-5H-dibenzo[a,d][7]cycloheptenyl-naphthylene)piperidine-1-yl)propyl)phenyl)-2-methylpropionic acid], the inhibition in vivo at 5 mg/kg in series [1] came out at 42.6%. Besides, the IC50 against hERG potassium channel was more than 30 µM. Also, the “Inhibition rate (%)” value in series [2] stood at 16.54%.

In the case of `CC(C)(C(=O)O)c1ccc(CCCN2CCC(=C3c4ccccc4CC(=O)c4sccc43)CC2)cc1` [Example 22, 2-Methyl-2-(4-(3-(4-(10-oxo-9,10-dihydro-4H-benzo[4,5]cyclohepta[1,2-b]thiophene-4-alkylene)piperidin 1-yl)propyl)phenyl) propionic acid], the inhibition in vivo at 5 mg/kg in series [1] was determined as 63.3%. Also, the “Inhibition rate (%)” value in series [2] is listed as 18.43%.

For `CC(C)(C(=O)O)c1ccc(CCCN2CCC(=C3c4ccccc4CC(O)c4sccc43)CC2)cc1` (stereo not shown) [Example 23, 2-(4-(3-(4-(10-hydroxy-9,10-dihydro-4H-benzo[4,5]cyclohept[1,2-b]thiophen-4-alkylene)piperidin-1-yl)propyl)phenyl)-2-methylpropionic acid], in series [1], the inhibition in vivo at 5 mg/kg is 66.7%. In addition, the “Inhibition rate (%)” value in series [2] worked out at 8.54%.

For the molecule `CC(C)(C(=O)O)c1ccc(CCCCN2CCC(=C3c4ccc(Cl)cc4CCc4cccnc43)CC2)cc1` [Example 24], the inhibition in vivo at 5 mg/kg in series [1] was found to be 47.6%. Besides, the “Inhibition rate (%)” value in series [2] is 10.32%.

Consider `CC(C)(C(=O)O)c1cccc(CCCN2CCC(=C3c4ccc(Cl)cc4CCc4cccnc43)CC2)c1` [Example 25, 2-(3-(3-(4-(8-chloro-5,6-dihydro-11H-benzo [5,6]cyclohepta [1,2-b]pyridine-11-enyl)piperidine-1-yl)propyl)phenyl)-2-methylpropionic acid], for which the inhibition in vivo at 5 mg/kg in series [1] was 66.8%. Besides, the “Inhibition rate (%)” value in series [2] was determined as 9.68%.

With `CC(C)(C(=O)O)c1ccc(C#N)c(CCCN2CCC(=C3c4ccc(Cl)cc4CCc4cccnc43)CC2)c1` [Example 26], the inhibition in vivo at 5 mg/kg in series [1] was found to be 68.2%. The same molecule displayed an IC50 on hERG potassium channel of more than 30 µM. For the same molecule, in series [2], the “Inhibition rate (%)” value is listed as 13.28%.

Turning to `CC(C)(C(=O)O)c1cccc(CCCN2CCC(=C3c4ccccc4CC(O)c4sccc43)CC2)c1` (stereo not shown) [Example 27, 2-(3-(3-(4-(10-hydroxy-9,10-dihydro-4H-benzo[4,5]cyclohepta[1,2-b]thiophene-4-alkylene)piperidin-1-yl)propyl)phenyl)-2-methylpropionic acid], the inhibition in vivo at 5 mg/kg in series [1] stood at 48.8%. For the same molecule, in series [2], the “Inhibition rate (%)” value is 5.48%.

Consider `CC(C)(C(=O)O)c1ccccc1CCCN1CCC(=C2c3ccc(Cl)cc3CCc3cccnc32)CC1` [Example 28, 2-(2-(3-(4-(8-chloro-5,6-dihydro-11H-benzo[5,6]cyclohepta[1,2-b]pyridine-11-enyl)piperidine-1-yl)propyl)phenyl)-2-methylpropionic acid], for which the inhibition in vivo at 5 mg/kg in series [1] was 43.8%. In series [2], the “Inhibition rate (%)” value came to 19.65%.

In the case of `CC(C)(C(=O)O)c1ccc(C(O)CCCN2CCC(=C3c4ccc(Cl)cc4CCc4cccnc43)CC2)cc1` (stereo not shown) [Example 29], the inhibition in vivo at 5 mg/kg in series [1] was found to be 64.3%. The molecule also yielded an IC50 against hERG potassium channel of more than 30 µM. The “Inhibition rate (%)” value in series [2] was determined as 11.28%.

`CC(C)(C(=O)O)c1cccc(C(O)CCCN2CCC(=C3c4ccc(Cl)cc4CCc4cccnc43)CC2)c1` (stereo not shown) [Example 30, 2-(3-(4-(4-(8-chloro-5,6-dihydro-11H-benzo[5,6]cyclohepta[1,2-b]pyridine-11-enyl)piperidine-1-yl)-1-hydroxybutyl)phenyl)-2-methylpropionic acid]: the inhibition in vivo at 5 mg/kg in series [1] is 52.2%. The “Inhibition rate (%)” value in series [2] stood at 6.74%.

In the case of `CC(C)(C(=O)O)c1cccc(C(O)CCN2CCC(=C3c4ccc(Cl)cc4CCc4cccnc43)CC2)c1` (stereo not shown) [Example 31, 2-(3-(3-(4-(8-chloro-5,6-dihydro-11H-benzo[5,6]cyclohepta[1,2-b]pyridine-11-enyl)piperidine-1-yl)-1-hydroxypropyl)phenyl)-2-methylpropionic acid], the inhibition in vivo at 5 mg/kg in series [1] turned out to be 48%. For the same molecule, the “Inhibition rate (%)” value in series [2] is recorded as 13.25%.

Molecule `CC(C)(C(=O)[O-])c1ccc(CCN2CCC(=C3c4ccc(Cl)cc4CCc4cccnc43)CC2)cc1.[Na+]` [Example 32] came in with an IC50 on hERG potassium channel of more than 30 µM. Also, the “Inhibition rate (%)” value in series [2] is on record as 18.93%.
